Measured values from patent US7396841B2, “Injections” (Takeda Pharmaceutical Company Limited, priority 2000, dated 2008).

Assay: Dissolution of compound A in equimolar 0.2 mol/L sodium hydroxide and appearance of aqueous preparations (Examples 1 and 2)
Assay type: physicochemical
Method: The resultant solutions (1 mL and 2 mL) were filled into vials to prepare injectable compositions of formulations 1 and 2 in Table 1.
In accordance with the formulation of preparation solution in Table 2, the compound A was dissolved in the equivalent amount (in molar ratio) of a sodium hydroxide aqueous solution (0.2 mol/L), and then mannitol, N-methylglucamine and a water for injection were added thereto to dissolve followed by sterile filtration with a filter (0.22 μm) made from Durapola (manufactured by Nihon Millipore Ltd.) to prepare a preparation solution for injectable composition A.

Cc1c(OCC(F)(F)F)ccnc1C[S+]([O-])c1nc2ccccc2[nH]1 (centres unmarked) [Compound A, 2-[[[3-methyl-4-(2,2,2-trifluoroethoxy)-2-pyridinyl]methyl]sulfinyl]-1H-benzimidazole]
Appearance of resultant solution (compound A in equimolar sodium hydroxide aqueous solution (0.2 mol/L)): transparent and colorless | Dissolution of compound A (in the equivalent amount (in molar ratio) of a sodium hydroxide aqueous solution (0.2 mol/L)): quickly dissolved
